Tests used:
[1] = test system: Human immunodeficiency virus 1; assay: microbe, parasite or virus in culture; conditions: Human immunodeficiency virus 1, read-out: pIC50 (converted)
Description: Antiviral activity against wild type Human immunodeficiency virus 1

[2] = physchem; conditions: octanol/water
Description: Octanol-water partition coefficient, log P of the compound

Compound | IC50 [1] | logP [2]
N#C/N=C(\NCCc1ccc(C#N)cc1)N/C(Cc1c(Cl)cccc1Cl)=N\c1ccccc1 | 158 nM | 5.98
CN(C)C(Cc1c(Cl)cccc1Cl)NC(=N)Nc1ccc(C#N)cc1 (stereo not drawn) | 757 nM | 7.06
N=C(Cc1c(Cl)cccc1Cl)NC(=S)Nc1ccc(Cl)cc1 | 13 nM | 4.19
C/N=C(/Cc1c(Cl)cccc1Cl)NC(=O)Nc1ccc(C#N)cc1 | 214 nM | 5.96
CN/C(Cc1c(Cl)cccc1Cl)=N\C(S)=N\c1ccc(C#N)cc1 | 77.4 nM | 6.75
CN(C)C(Cc1c(Cl)cccc1Cl)/N=C(\S)Nc1ccc(C#N)cc1 (stereo not drawn) | – | 5.64
N#Cc1ccc(N/C(S)=N/C(=N)Cc2c(F)cccc2F)cc1 | 6 nM | 2.95
N=C(Cc1c(Cl)cccc1Cl)NC(=S)NCc1ccc(Cl)cc1 | 692 nM | 5.97
Cc1ccccc1CC(=N)/N=C(\S)Nc1ccc(C#N)cc1 | 26 nM | 3.13
COc1ccccc1CC(=N)/N=C(\S)Nc1ccc(C#N)cc1 | 30 nM | 2.42
N#Cc1ccc(NC(=S)NC(=N)Cc2ccccc2)cc1 | 380 nM | 2.67
N=C(Cc1c(Cl)cccc1Cl)NC(=S)Nc1ccc(Cl)cc1Cl | 347 nM | 4.7
CC(C(=N)/N=C(\S)Nc1ccc(C#N)cc1)c1c(Cl)cccc1Cl (stereo not drawn) | 158 nM | 5.95
N=C(Cc1c(Cl)cccc1Cl)NC(=S)Nc1ccccc1 | 123 nM | 3.67
CCN/C(Cc1c(Cl)cccc1Cl)=N\C(S)=N\c1ccc(C#N)cc1 | 195 nM | 5.77
N=C(Cc1c(Cl)cccc1Cl)NC(=S)NCCc1ccc(Cl)cc1 | 617 nM | 6.22
N#Cc1ccc(NC(=S)NC(=N)Cc2ccc(Cl)cc2)cc1 | 148 nM | 3.19

The remaining lines, values ahead:

IC50 [1] | logP [2] | Compound
126 nM | 4.83 | N#Cc1ccc(NC(=S)NC(=N)Cc2c(Cl)cccc2Cl)cc1
676 nM | 6.11 | N#Cc1ccc(NC(=S)NC(=N)C2(c3c(Cl)cccc3Cl)CC2)cc1
43.7 nM | 5.46 | N#Cc1ccc(NC(=S)NC(=N)c2c(Cl)cccc2Cl)cc1
67.9 nM | 3.19 | N#Cc1ccc(NC(=S)NC(=N)Cc2cccc(Cl)c2)cc1
7 nM | 3.7 | N#Cc1ccc(NC(=S)NC(=N)Cc2ccc(Cl)cc2Cl)cc1
14 nM | 3.19 | N#Cc1ccc(NC(=S)NC(=N)Cc2ccccc2Cl)cc1
525 nM | 5.79 | N#Cc1ccc(NC(=S)NC(=N)CCc2c(Cl)cccc2Cl)cc1
15 nM | 3.71 | N#Cc1ccc(NC(=O)NC(=N)Cc2c(Cl)cccc2Cl)cc1
126 nM | 3.7 | N#Cc1cccc(NC(=S)NC(=N)Cc2c(Cl)cccc2Cl)c1
5 nM | 4.22 | N#Cc1ccc(NC(=S)NC(=N)Cc2c(Cl)ccc(Cl)c2Cl)cc1

Source: ChEMBL document CHEMBL3046335, “Prediction of anti-HIV activity of imidoyl thioureas: QSAR approach” (Med Chem Res, 2009)
